# Laboratory results taken from publication PMC7318222, “A Family of Water‐Immiscible, Dipolar Aprotic, Diamide Solvents from Succinic Acid” (Chemsuschem, 2020).
# “Also recorded” adds a separate entry of the source.
# Experiments:
# PR = molecular target: T1, PR (Homo sapiens, UniProt P06401); assay: PR-anti CALUX reporter gene assay (antagonistic mode); format: cell-based; parameters: key: –: no effect observed up to the highest test concentration; settings: PC20, 24 h exposure
# T1 construct: expression construct for the full-length human receptor under investigation; expressed in transfected cells; host or cells: human U2-OS cells (ATCC HTB-96), stably transfected
# T1 sequence (P06401 1-933): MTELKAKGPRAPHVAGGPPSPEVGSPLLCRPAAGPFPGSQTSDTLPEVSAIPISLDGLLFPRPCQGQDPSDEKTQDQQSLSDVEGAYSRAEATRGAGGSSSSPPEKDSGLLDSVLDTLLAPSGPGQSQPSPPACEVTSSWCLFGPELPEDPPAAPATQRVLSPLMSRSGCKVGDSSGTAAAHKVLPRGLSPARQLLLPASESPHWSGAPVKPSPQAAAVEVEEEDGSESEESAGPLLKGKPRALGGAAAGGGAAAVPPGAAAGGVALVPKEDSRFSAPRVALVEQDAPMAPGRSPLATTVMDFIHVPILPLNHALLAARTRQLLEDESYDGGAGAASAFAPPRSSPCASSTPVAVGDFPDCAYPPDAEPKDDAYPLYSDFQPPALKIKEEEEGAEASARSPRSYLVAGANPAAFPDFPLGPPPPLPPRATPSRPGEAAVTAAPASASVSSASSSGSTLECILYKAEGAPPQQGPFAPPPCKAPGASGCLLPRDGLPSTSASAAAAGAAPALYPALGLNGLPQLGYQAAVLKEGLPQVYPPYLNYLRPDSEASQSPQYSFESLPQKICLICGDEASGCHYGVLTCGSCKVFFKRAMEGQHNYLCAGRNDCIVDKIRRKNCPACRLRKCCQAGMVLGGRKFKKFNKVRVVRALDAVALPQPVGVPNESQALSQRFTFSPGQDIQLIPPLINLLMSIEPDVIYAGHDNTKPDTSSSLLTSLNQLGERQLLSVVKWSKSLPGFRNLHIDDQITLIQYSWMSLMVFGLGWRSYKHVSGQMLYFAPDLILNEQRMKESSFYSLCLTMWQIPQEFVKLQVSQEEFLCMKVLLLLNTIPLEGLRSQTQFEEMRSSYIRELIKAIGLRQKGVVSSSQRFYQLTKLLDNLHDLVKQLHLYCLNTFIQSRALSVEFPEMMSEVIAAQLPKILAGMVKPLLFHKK
# Excerpt: 99.8% (anhydrous), 4-nitroaniline ≥99.0%, 1-octanol ≥99.0%, diglyme ≥99.0%, DMSO-d6 (99.8% D) and chloroform-d (99.8% D) were purchased from Sigma-Aldrich. Toluene ≥99.0%, hexane ≥99.5%, DCM ≥99.5%, chloroform ≥99.5%, DMSO ≥99.0% were purchased from VWR. N,N-diethyl-4-nitroaniline ≥98.0% was purchased from Alfa Aeser. Cyrene was supplied by Circa group. N-butylpyrrolidinone was supplied by Eastman chemicals. N,N-dimethylformamide 99.9% and N,N-dimethylacetamide 99.9% were purchased from Fischer. The flakes of Ultrason® E3020 P Polyarylethersulfone of 55,000 Da were obtained from INGE.BASF, Germany. The CALUX cell lines have been described previously.[1] They are based on human U2-OS cells (ATCC, HTB-96) stably transfected with an expression construct for the full-length human receptor under investigation, and a reporter construct consisting of multimerized responsive elements for the cognate receptor coupled to a minimal promoter element (TATA) and a luciferase gene. Cells were maintained as described previously,[2] using cell culture media and supplements from Fisher Scientific as described in the experimental procedures section. […]
# In vitro reporter gene assays
# The automated CALUX assays were carried out similarly as described earlier,[12] with some adaptations. In brief, the assay was performed in CO2 independent medium (Fisher Scientific, […]
# supplement (Fisher Scientific, 11574466), 10 U/mL penicillin and 10 µg/mL streptomycin. A cell suspension in assay medium was made of 1 × 10^5cells/mL, and white 384-wells plates were seeded with 30 µl cell suspension/well. After 24 h, exposure medium was prepared. A dilution series in 0.5log unit increments of each test compound (in DMSO) was added to a 96-wells plate containing assay medium (2% v/v). Of this exposure mixture, 30 µl was added to the assay plates containing the CALUX cells, resulting in a final DMSO concentration of 1%. Additionally, DMSO blanks and a full dose response curve of the relevant reference compound were included on each plate. All samples were tested in triplicate. The preparation of the compound dilution series as well as the exposure of the cells were performed on a Hamilton StarLET liquid handling robot coupled to a Cytomat incubator.
# Directly after exposure, plates were sealed with non-breathing plate seals (Plate sealer, easy seal transparent; Greiner-Bio-One, 676001). After 24 h the exposure medium was removed using an EL406 washer-dispenser (BioTek) and 10 µl/well triton lysisbuffer was added by the EL406.
# Subsequently, the luciferase signal was measured in a luminometer (InfinitePro coupled to a Connect Stacker, both TECAN). In order to be able to detect receptor antagonism, several assays were also performed in antagonistic mode. The assay procedure was as described above, with the only exception that the EC50 concentration of the reference agonist was present during the exposure.
# The luminometer data was analysed as follows; the average of the triplicate wells was determined, and the average blank (DMSO) value was subtracted. […] For antagonist- and cytotoxicity experiments, PC20 values were determined instead, which was defined as the concentration where the test compound causes a 20% decrease in the basal signal, which was […]
# curve, the signal induction above background (DMSO) was determined, and the concentration where the compound elicited a 1.5-fold increase above background was used as LEC.
# Miscibility with water = format: physicochemical; settings: this work
SMILES,LEC PR‐anti (PR),Water misc. (Miscibility with water)
"CCCCN(CCCC)C(=O)CCC(=O)N(CCCC)CCCC [TBSA, N,N,N′,N′‐tetrabutylsuccindiamide]",–,no^[a]
"CCCCN(CC)C(=O)CCC(=O)N(CC)CCCC [EBSA, N,N′‐diethyl‐N,N′‐dibutylsuccindiamide]",–,no^[a]
"CN1CCCC1=O [NMP, N‐methyl‐2‐pyrrolidone, reference compound]",–,yes^[a]
"CCCCN(C)C(=O)CCC(=O)N(C)CCCC [MBSA, N,N′‐dimethyl‐N,N′‐dibutylsuccindiamide]",–,no^[a]
"CCCCN1CCCC1=O [NBP, N‐Butylpyrrolidinone, reference compound]",–,miscible; also recorded: yes^[a]
